Assay results reported in patent publication US9199946B2, “Pyrimidinone carboxamide inhibitors of endothelial lipase” (BRISTOL-MYERS SQUIBB COMPANY, priority 2012, dated 2015).

Molecular target: T1, Endothelial lipase (EL) (Homo sapiens, UniProt Q9Y5X9)
T1 construct: HT-1080 cells, which were transformed by RAGE technology (Athersys) to overexpress endogenous EL; endogenous in cells; conditioned medium used as the enzyme source
T1 sequence (Q9Y5X9 21-500): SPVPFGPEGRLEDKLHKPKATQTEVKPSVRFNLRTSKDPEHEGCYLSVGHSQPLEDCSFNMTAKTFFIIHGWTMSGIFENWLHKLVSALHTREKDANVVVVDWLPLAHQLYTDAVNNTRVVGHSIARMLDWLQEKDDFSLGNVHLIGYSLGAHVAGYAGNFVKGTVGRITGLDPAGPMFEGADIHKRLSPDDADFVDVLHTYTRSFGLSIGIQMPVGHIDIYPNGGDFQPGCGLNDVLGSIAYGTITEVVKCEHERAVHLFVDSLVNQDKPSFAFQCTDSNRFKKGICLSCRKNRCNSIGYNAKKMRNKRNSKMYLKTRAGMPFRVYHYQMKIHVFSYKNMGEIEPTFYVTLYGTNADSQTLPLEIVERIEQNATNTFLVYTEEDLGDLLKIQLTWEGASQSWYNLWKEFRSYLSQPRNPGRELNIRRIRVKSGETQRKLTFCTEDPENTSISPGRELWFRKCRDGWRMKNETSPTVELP
Assay: Endothelial lipase (EL) enzymatic assay with fluorescent substrate A10070 in DMPG vesicles
Format: biochemical
Conditions: range observed in the EL assay; read-out: EL IC50 values
Outline: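 EL activity was followed as a fluorescence rate (488/530 nm, reads every 20 s for 10 min, linear slope) on A10070 doped at 0.05 mole fraction into sonicated DMPG vesicles. Compound was first incubated 20 min at 37 °C, pH 8.0 HEPES/CaCl2 buffer, with conditioned media from EL-overexpressing HT-1080 cells.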

SMILES	IC50 [µM]
CCOc1cccc(C(=O)N[C@H]2CC[C@@H](NC(=O)c3[nH]c(=O)[nH]c(=O)c3N)CC2)c1 [Example 121, 5-amino-N-(cis-4-(3-ethoxybenzamido)cyclohexyl)-2,6-dioxo-1,2,3,6-tetrahydropyrimidine-4-carboxamide]	≤ 10
O=C(N[C@@H]1CC[C@@H](c2ccc(Cl)c(Cl)c2)C1)c1[nH]c(=O)[nH]c(=O)c1O [Example 251, N-((1R,3R)-3-(3,4-dichlorophenyl)cyclopentyl)-5-hydroxy-2,6-dioxo-1,2,3,6-tetrahydropyrimidine-4-carboxamide]	≤ 10
CCNc1c(C(=O)N[C@H]2CC[C@@H](c3ccccc3)CC2)[nH]c(=O)[nH]c1=O [Example 229, 5-(ethylamino)-2,6-dioxo-N-(cis-4-phenylcyclohexyl)-1,2,3,6-tetrahydropyrimidine-4-carboxamide]	≤ 10
O=C(N[C@@H]1CCCc2c(OCC(F)(F)F)cccc21)c1[nH]c(=O)[nH]c(=O)c1O [Example 255, (R)-5-hydroxy-2,6-dioxo-N-(5-(2,2,2-trifluoroethoxy)-1,2,3,4-tetrahydronaphthalen-1-yl)-1,2,3,6-tetrahydropyrimidine-4-carboxamide]	≤ 10
O=C(Cc1ccccc1)N[C@H]1CC[C@@H](NC(=O)c2[nH]c(=O)[nH]c(=O)c2O)CC1 [Example 279, 5-hydroxy-2,6-dioxo-N-(cis-4-(2-phenylacetamido)cyclohexyl)-1,2,3,6-tetrahydropyrimidine-4-carboxamide]	≤ 10
O=C(Nc1ccc2c(c1)CCC[C@H]2NC(=O)c1[nH]c(=O)[nH]c(=O)c1O)c1ccccc1 [Example 288, (R)-N-(6-benzamido-1,2,3,4-tetrahydronaphthalen-1-yl)-5-hydroxy-2,6-dioxo-1,2,3,6-tetrahydropyrimidine-4-carboxamide]	≤ 10
Nc1c(C(=O)NC2CCC(c3cnn(Cc4ccccc4)c3)C2)[nH]c(=O)[nH]c1=O (single isomer, unassigned) [Example 131, 5-amino-N-(3-(1-benzyl-1H-pyrazol-4-yl)cyclopentyl)-2,6-dioxo-1,2,3,6-tetrahydropyrimidine-4-carboxamide]	≤ 10
CC(C)(C)OC(=O)N1CCC(NC(=O)c2[nH]c(=O)[nH]c(=O)c2N)C1 (stereo not shown) [Example 62, tert-butyl 3-(5-amino-2,6-dioxo-1,2,3,6-tetrahydropyrimidine-4-carboxamido)pyrrolidine-1-carboxylate]	≤ 10
Nc1c(C(=O)N[C@H]2CCCc3cc(C(F)(F)F)ccc32)[nH]c(=O)[nH]c1=O [Example 52, (S)-5-amino-2,6-dioxo-N-(6-(trifluoromethyl)-1,2,3,4-tetrahydronaphthalen-1-yl)-1,2,3,6-tetrahydropyrimidine-4-carboxamide]	≤ 10
Nc1c(C(=O)N[C@@H]2CCc3cc(OCc4ccccc4)ccc32)[nH]c(=O)[nH]c1=O [Example 87, (R)-5-amino-N-(5-(benzyloxy)-2,3-dihydro-1H-inden-1-yl)-2,6-dioxo-1,2,3,6-tetrahydropyrimidine-4-carboxamide]	≤ 10
Nc1c(C(=O)N[C@H]2CCc3ccc(OCc4ccccc4)cc32)[nH]c(=O)[nH]c1=O [Example 90, (S)-5-amino-N-(6-(benzyloxy)-2,3-dihydro-1H-inden-1-yl)-2,6-dioxo-1,2,3,6-tetrahydropyrimidine-4-carboxamide]	≤ 10
COc1ccc([C@@H]2CC[C@@H](NC(=O)c3[nH]c(=O)[nH]c(=O)c3N)C2)cn1 [Example 80, 5-amino-N-((1R,3R)-3-(6-methoxypyridin-3-yl)cyclopentyl)-2,6-dioxo-1,2,3,6-tetrahydropyrimidine-4-carboxamide]	≤ 10
Nc1c(C(=O)N[C@@H]2CCCc3c(Oc4ccccc4)cccc32)[nH]c(=O)[nH]c1=O [Example 84, (R)-5-amino-2,6-dioxo-N-(5-phenoxy-1,2,3,4-tetrahydronaphthalen-1-yl)-1,2,3,6-tetrahydropyrimidine-4-carboxamide]	≤ 10
